The Emax is the size of the effect at its maximum, as opposed to the concentration needed.

One experiment concerns the target T1, GIP-R (Homo sapiens, UniProt P48546).
T1 sequence (P48546 22-466): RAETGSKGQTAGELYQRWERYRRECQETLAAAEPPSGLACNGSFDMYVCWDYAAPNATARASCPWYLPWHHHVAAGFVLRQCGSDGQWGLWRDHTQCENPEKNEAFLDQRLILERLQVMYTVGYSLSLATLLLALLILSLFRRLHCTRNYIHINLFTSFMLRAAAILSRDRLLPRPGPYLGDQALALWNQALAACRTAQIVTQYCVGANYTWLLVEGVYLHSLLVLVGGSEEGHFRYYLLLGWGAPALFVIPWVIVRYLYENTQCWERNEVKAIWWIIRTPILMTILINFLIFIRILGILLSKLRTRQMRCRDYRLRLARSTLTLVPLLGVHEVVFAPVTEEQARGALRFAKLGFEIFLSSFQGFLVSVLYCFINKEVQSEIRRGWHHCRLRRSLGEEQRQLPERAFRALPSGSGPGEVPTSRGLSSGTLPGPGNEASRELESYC
The experiment in a line: HitHunter cAMP assay (GIP-R). Type of experiment: cell-based. Particulars: cAMP; for Emax: read-out: (Emax) GIP-R. The gist of the method:
(§1)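 Cells were resuspended in HBSS plus HEPES, IBMX (625 μM) and BSA, then dispensed with antibody at 10,000 per well. Agonists followed as 22-point twofold series, 30 min at room temperature. Antibody reagent and detection steps ran 1 h and overnight in the dark before luminescence.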
(In general: Changes in cAMP serve as a functional read-out for many G protein-coupled receptors.)

For the next experiment, the target named is GLP-1R (Homo sapiens, UniProt P43220). The experiment in a line: HitHunter cAMP assay (GLP-1R). Type of experiment: cell-based. Conditions: cAMP; for Emax: read-out: (Emax) GLP-1R. The method, boiled down: as §1
Chain of GLP-1R (P43220 24-463): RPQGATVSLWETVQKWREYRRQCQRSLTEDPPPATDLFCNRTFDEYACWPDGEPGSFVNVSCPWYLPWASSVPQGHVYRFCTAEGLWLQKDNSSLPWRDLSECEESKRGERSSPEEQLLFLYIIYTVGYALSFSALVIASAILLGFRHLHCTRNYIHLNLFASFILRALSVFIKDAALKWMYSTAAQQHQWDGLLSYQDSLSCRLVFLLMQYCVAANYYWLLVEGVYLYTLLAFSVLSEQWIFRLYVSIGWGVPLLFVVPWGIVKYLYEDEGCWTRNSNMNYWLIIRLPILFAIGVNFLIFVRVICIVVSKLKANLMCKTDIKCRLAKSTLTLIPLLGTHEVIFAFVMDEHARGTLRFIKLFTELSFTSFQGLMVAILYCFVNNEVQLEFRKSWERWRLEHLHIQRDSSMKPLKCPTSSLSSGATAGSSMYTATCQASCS
Where [1] appears, read: Table 3A, read-out: EC50 GIP-R/nM.
The mark [2] stands for this setting: Table 3A, read-out: EC50 GLP-1R/nM.
The mark [3] stands for this setting: Table 3, read-out: EC50 GIP-R/nM.
Where [4] appears, read: Table 3, read-out: EC50 GLP-1R/nM.

Molecules are shown by their SMILES. Where two headings read alike, the source gives them in different places. Numbered stars: 1 amine (or outer) side, 2 acyl side, 3 side chain; on linkers, the order of the positions; unused ones are H or OH. Square brackets hold non-standard residues; d marks the D form. Side chains are listed from the residue outwards. Peptide text beside a SMILES is read from it. * marks the point of attachment. X9 = O=C([C@H](Cc1cc(O)no1)N[*:1])[*:2]; γGlu = O=C(O)[C@H](CCC(=O)[*:2])N[*:1]; Palmitoyl = CCCCCCCCCCCCCCCC(=O)*; X6 = O=C(CSCC(=O)*)NCCN1CCCCC1=O; Aib = CC(C)(N)C(=O)O Some results are limits rather than exact numbers.

For the molecule `CCCCCCCCCCCCCCCC(=O)N[C@@H](CCC(=O)NCCCC[C@H](NC(=O)[C@H](CO)NC(=O)[C@@H]1CCCN1C(=O)[C@@H]1CCCN1C(=O)[C@@H]1CCCN1C(=O)[C@H](C)NC(=O)CNC(=O)[C@H](CO)NC(=O)[C@H](CO)NC(=O)[C@@H]1CCCN1C(=O)CNC(=O)CNC(=O)[C@H](C)NC(=O)[C@H](CC(C)C)NC(=O)[C@H](CC(C)C)NC(=O)[C@H](Cc1c[nH]c2ccccc12)NC(=O)[C@H](CC(N)=O)NC(=O)[C@@H](NC(=O)[C@H](Cc1ccccc1)NC(=O)[C@H](CCC(=O)O)NC(=O)C(C)(C)NC(=O)[C@H](C)NC(=O)[C@H](C)NC(=O)[C@H](CCC(N)=O)NC(=O)[C@H](CCCCN)NC(=O)[C@H](CC(=O)O)NC(=O)[C@H](CC(C)C)NC(=O)[C@H](Cc1ccc(O)cc1)NC(=O)[C@@H](NC(=O)[C@H](CO)NC(=O)[C@H](Cc1ccc(O)cc1)NC(=O)[C@H](CC(=O)O)NC(=O)[C@H](CO)NC(=O)[C@@H](NC(=O)[C@H](Cc1ccccc1)NC(=O)[C@@H](NC(=O)CNC(=O)[C@H](Cc1cc(O)no1)NC(=O)CSCC(=O)NCCN1CCCCC1=O)[C@@H](C)O)[C@@H](C)O)[C@@H](C)CC)C(C)C)C(N)=O)C(=O)O` [Compound 292] (X6-[X9]GTFTSDYSIYLDKQAA[Aib]EFVNWLLAGGPSSGAPPPSK([γGlu-Palmitoyl])-NH2), the Emax on GIP-R (Table 3A) amounted to 50%; on GLP-1R (Table 3A) it was 90%. Besides, the EC50 was 10 to 100 nM at GIP-R (setting [1]) and 1 to 10 nM on GLP-1R (setting [2]).

With `CC[C@H](C)[C@H](NC(=O)[C@H](CO)NC(=O)[C@H](Cc1ccc(O)cc1)NC(=O)[C@H](CC(=O)O)NC(=O)[C@H](CO)NC(=O)[C@@H](NC(=O)[C@H](Cc1ccccc1)NC(=O)[C@@H](NC(=O)CNC(=O)[C@H](CCC(=O)O)NC(=O)CC(C)CC(=O)NCCN1C(=O)CSC1=O)[C@@H](C)O)[C@@H](C)O)C(=O)N[C@@H](Cc1ccc(O)cc1)C(=O)N[C@@H](CC(C)C)C(=O)N[C@@H](CC(=O)O)C(=O)N[C@@H](CCCCN)C(=O)N[C@@H](CCC(N)=O)C(=O)N[C@@H](C)C(=O)N[C@@H](C)C(=O)NC(C)(C)C(=O)N[C@@H](CCC(=O)O)C(=O)N[C@@H](Cc1ccccc1)C(=O)N[C@H](C(=O)N[C@@H](CC(N)=O)C(=O)N[C@@H](Cc1c[nH]c2ccccc12)C(=O)N[C@@H](CC(C)C)C(=O)N[C@@H](CC(C)C)C(=O)N[C@@H](C)C(=O)NCC(=O)NCC(=O)N1CCC[C@H]1C(=O)N[C@@H](CO)C(=O)N[C@@H](CO)C(=O)NCC(=O)N[C@@H](C)C(=O)N1CCC[C@H]1C(=O)N1CCC[C@H]1C(=O)N1CCC[C@H]1C(=O)N[C@@H](CO)C(=O)N[C@@H](CCCCN)C(N)=O)C(C)C` (mixture of isomers) [Compound 120], the EC50 was more than 1000 nM at GIP-R (setting [3]), more than 1000 nM at GIP-R (setting [1]), 1 to 10 nM at GLP-1R (setting [4]) and 1 to 10 nM at GLP-1R (setting [2]). In addition, the Emax at 1 µM on GIP-R (read-out: (Emax) GIP-R at 1 μM, Table 3, at 1 μM) is 6%. Besides, the Emax at GLP-1R (Table 3) and on GLP-1R (Table 3A) was 91% in each case.

For `CCCCCCCCCCCCCCCC(=O)N[C@@H](CCC(=O)NCCCC[C@H](NC(=O)[C@H](CO)NC(=O)[C@@H]1CCCN1C(=O)[C@@H]1CCCN1C(=O)[C@@H]1CCCN1C(=O)[C@H](C)NC(=O)CNC(=O)[C@H](CO)NC(=O)[C@H](CO)NC(=O)[C@@H]1CCCN1C(=O)CNC(=O)CNC(=O)[C@H](C)NC(=O)[C@H](CC(C)C)NC(=O)[C@H](CC(C)C)NC(=O)[C@H](Cc1c[nH]c2ccccc12)NC(=O)[C@H](CC(N)=O)NC(=O)[C@@H](NC(=O)[C@H](Cc1ccccc1)NC(=O)[C@H](CCC(=O)O)NC(=O)C(C)(C)NC(=O)[C@H](C)NC(=O)[C@H](C)NC(=O)[C@H](CCC(N)=O)NC(=O)[C@H](CCCCN)NC(=O)[C@H](CC(=O)O)NC(=O)[C@H](CC(C)C)NC(=O)[C@H](Cc1ccc(O)cc1)NC(=O)[C@@H](NC(=O)[C@H](CO)NC(=O)[C@H](Cc1ccc(O)cc1)NC(=O)[C@H](CC(=O)O)NC(=O)[C@H](CO)NC(=O)[C@@H](NC(=O)[C@H](Cc1ccccc1)NC(=O)[C@@H](NC(=O)CNC(=O)[C@H](CCC(=O)O)NC(=O)C(C)(C)C(=O)NCCn1ccccc1=O)[C@@H](C)O)[C@@H](C)O)[C@@H](C)CC)C(C)C)C(N)=O)C(=O)O` [Compound 254], the maximal effect (Emax) on GIP-R (Table 3A) was 80%. In addition, the values for the EC50 at GIP-R (setting [1]) and on GLP-1R (setting [2]) were 1 to 10 nM and less than 0.1 nM, respectively.

`CCCCCCCCCCCCCCCC(=O)N[C@@H](CCC(=O)NCCCC[C@H](NC(=O)[C@H](CO)NC(=O)[C@@H]1CCCN1C(=O)[C@@H]1CCCN1C(=O)[C@@H]1CCCN1C(=O)[C@H](C)NC(=O)CNC(=O)[C@H](CO)NC(=O)[C@H](CO)NC(=O)[C@@H]1CCCN1C(=O)CNC(=O)CNC(=O)[C@H](C)NC(=O)[C@H](CC(C)C)NC(=O)[C@H](CC(C)C)NC(=O)[C@H](Cc1c[nH]c2ccccc12)NC(=O)[C@H](CC(N)=O)NC(=O)[C@@H](NC(=O)[C@H](Cc1ccccc1)NC(=O)[C@H](CCC(=O)O)NC(=O)C(C)(C)NC(=O)[C@H](C)NC(=O)[C@H](C)NC(=O)[C@H](CCC(N)=O)NC(=O)[C@H](CCCCN)NC(=O)[C@H](CC(=O)O)NC(=O)[C@H](CC(C)C)NC(=O)[C@H](Cc1ccc(O)cc1)NC(=O)[C@@H](NC(=O)[C@H](CO)NC(=O)[C@H](Cc1ccc(O)cc1)NC(=O)[C@H](CC(=O)O)NC(=O)[C@H](CO)NC(=O)[C@@H](NC(=O)[C@H](Cc1ccccc1)NC(=O)[C@@H](NC(=O)CNC(=O)[C@H](CCC(=O)O)NC(=O)CSCC(=O)NCCN1C(=O)C[C@@H](C)C1=O)[C@@H](C)O)[C@@H](C)O)[C@@H](C)CC)C(C)C)C(N)=O)C(=O)O` [Compound 89]: the EC50 lay within 0.1 to 1 nM at GIP-R (EC50 GIP-R/nM, Table 3); 0.1 to 1 nM at GIP-R (EC50 GIP-R/nM, Table 3A); 1 to 10 nM at GLP-1R (EC50 GLP-1R/nM, Table 3); 1 to 10 nM on GLP-1R (EC50 GLP-1R/nM, Table 3A). Further, the Emax amounted to 81% on GIP-R (Table 3), 81% at GIP-R (Table 3A), 108% at GLP-1R (Table 3) and 108% at GLP-1R (Table 3A).

On to `CCCCCCCCCCCCCCCC(=O)NCCCC[C@H](NC(=O)[C@H](CO)NC(=O)[C@@H]1CCCN1C(=O)[C@@H]1CCCN1C(=O)[C@@H]1CCCN1C(=O)[C@H](C)NC(=O)CNC(=O)[C@H](CO)NC(=O)[C@H](CO)NC(=O)[C@@H]1CCCN1C(=O)CNC(=O)CNC(=O)[C@H](C)NC(=O)[C@H](CC(C)C)NC(=O)[C@H](CC(C)C)NC(=O)[C@H](Cc1c[nH]c2ccccc12)NC(=O)[C@H](CC(N)=O)NC(=O)[C@@H](NC(=O)[C@H](Cc1ccccc1)NC(=O)[C@H](CCC(=O)O)NC(=O)C(C)(C)NC(=O)[C@H](C)NC(=O)[C@H](C)NC(=O)[C@H](CCC(N)=O)NC(=O)[C@H](CCCCN)NC(=O)[C@H](CC(=O)O)NC(=O)[C@H](CC(C)C)NC(=O)[C@H](Cc1ccc(O)cc1)NC(=O)[C@@H](NC(=O)[C@H](CO)NC(=O)[C@H](Cc1ccc(O)cc1)NC(=O)[C@H](CC(=O)O)NC(=O)[C@H](CO)NC(=O)[C@@H](NC(=O)[C@H](Cc1ccccc1)NC(=O)[C@@H](NC(=O)CNC(=O)[C@H](CCC(=O)O)NC(=O)CSCC(=O)NCCN1C(=O)CSC1=O)[C@@H](C)O)[C@@H](C)O)[C@@H](C)CC)C(C)C)C(=O)O` [Compound 56], for which the Emax at GIP-R (Table 3) turned out to be 60%; on GIP-R (Table 3A), 60%; at GLP-1R (Table 3) it was 110%; on GLP-1R (Table 3A), 110%. For the same molecule, the EC50 lay within 1 to 10 nM at GIP-R (setting [3]), 1 to 10 nM at GIP-R (setting [1]), 0.1 to 1 nM at GLP-1R (setting [4]) and 0.1 to 1 nM at GLP-1R (setting [2]).

The values are drawn from patent US20260176320A1, “MODULATORS OF G-PROTEIN COUPLED RECEPTORS” (priority 2018, published 2026).
